Test results from patent publication US11229623B2 (GlaxoSmithKline Intellectual Property (No.2) Limited, priority 2016, dated 2022).

Target: T1, human TRPV4 (Homo sapiens, UniProt Q9HBA0)
T1 construct: expressed in transfected cells; host or cells: BHK/AC9 cells transduced with BacMam virus
Experiment: FLIPR assay for hTRPV4 expressed in BHK cells: inhibition of Agonist Compound-induced calcium signal
Type: cell-based
Conditions: not given
Outline: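 BHK/AC9 cells transduced with BacMam human TRPV4 (MOI 78), plated 15,000 per well and cultured 24 h at 37° C. Loaded with 2 μM Fluo-4 AM plus 500 μM Brilliant Black in HBSS for 1-1.5 h at room temperature in the dark; intracellular calcium signal read by FLIPR fluorescence.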

T1 sequence (Q9HBA0 whole entry): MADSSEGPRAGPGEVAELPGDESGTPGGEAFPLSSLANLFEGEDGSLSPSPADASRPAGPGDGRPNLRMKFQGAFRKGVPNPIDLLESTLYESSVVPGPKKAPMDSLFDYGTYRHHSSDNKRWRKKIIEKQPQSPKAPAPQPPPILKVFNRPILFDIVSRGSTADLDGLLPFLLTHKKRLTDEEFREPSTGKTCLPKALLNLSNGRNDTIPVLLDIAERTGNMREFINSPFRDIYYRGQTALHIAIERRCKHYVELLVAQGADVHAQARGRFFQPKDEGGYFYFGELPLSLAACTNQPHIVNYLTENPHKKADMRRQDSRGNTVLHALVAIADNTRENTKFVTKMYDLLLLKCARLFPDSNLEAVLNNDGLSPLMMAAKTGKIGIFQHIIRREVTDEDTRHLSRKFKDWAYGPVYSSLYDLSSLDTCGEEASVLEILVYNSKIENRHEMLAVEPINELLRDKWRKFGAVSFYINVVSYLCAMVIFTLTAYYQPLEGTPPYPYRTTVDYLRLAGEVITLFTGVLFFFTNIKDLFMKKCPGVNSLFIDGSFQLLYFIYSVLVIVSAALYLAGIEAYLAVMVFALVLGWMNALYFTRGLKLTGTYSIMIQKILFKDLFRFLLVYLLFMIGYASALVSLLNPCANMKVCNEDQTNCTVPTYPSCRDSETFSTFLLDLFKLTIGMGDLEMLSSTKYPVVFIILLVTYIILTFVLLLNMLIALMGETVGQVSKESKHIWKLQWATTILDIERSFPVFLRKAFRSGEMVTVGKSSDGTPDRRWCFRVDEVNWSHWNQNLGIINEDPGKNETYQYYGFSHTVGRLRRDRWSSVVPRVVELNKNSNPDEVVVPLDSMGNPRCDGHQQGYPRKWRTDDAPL

| Structure (SMILES) | IC50 |
| --- | --- |
| C[C@H](O)[C@]1(O)CN(S(=O)(=O)c2ccc(Cl)cn2)C[C@@H]1Oc1ccc(C#N)c(F)c1 [Example 191] | 100 to 1000 nM |

Same assay, conditions: hTRPV4 FLIPR assay; average in at least one set of experimental runs; read-out: average IC50

| IC50 | Structure (SMILES) |
| --- | --- |
| 40 nM | C[C@H](O)[C@@]1(O)CN(S(=O)(=O)c2ccc(C(F)(F)F)cc2C#N)C[C@@H]1Oc1ccc(C#N)c(F)c1 [Example 194, 4-(((3S,4S)-1-((2-cyano-4-(trifluoromethyl)phenyl)sulfonyl)-4-hydroxy-4-((S)-1-hydroxyethyl)pyrrolidin-3-yl)oxy)-2-fluorobenzonitrile] |

Same assay, conditions: hTRPV4 in BHK/AC9 cells, FLIPR calcium signal, agonist at EC80; reported as range class; read-out: IC50

| Structure (SMILES) | IC50 |
| --- | --- |
| N#Cc1ncc(O[C@H]2CN(S(=O)(=O)c3ccc(C(F)(F)F)cc3C#N)C[C@@]2(O)CO)cn1 [Example 13, 5-(((3S,4R)-1-((2-cyano-4-(trifluoromethyl)phenyl)sulfonyl)-4-hydroxy-4-(hydroxymethyl)pyrrolidin-3-yl)oxy)pyrimidine-2-carbonitrile] | 10 to 100 nM |
| C#Cc1cc(C(F)(F)F)ccc1S(=O)(=O)N1C[C@H](Oc2ccc(C#N)c(F)c2)[C@](O)(CO)C1 [Example 225, 4-(((3S,4R)-1-((2-ethynyl-4-(trifluoromethyl)phenyl)sulfonyl)-4-hydroxy-4-(hydroxymethyl)pyrrolidin-3-yl)oxy)-2-fluorobenzonitrile] | 0.1 to 10 nM |
| N#Cc1ccc(O[C@H]2CN(S(=O)(=O)c3ccc(Cl)cc3Cl)C[C@@]2(O)CO)cc1F [Example 2, 4-(((3S,4R)-1-((2,4-dichlorophenyl)sulfonyl)-4-hydroxy-4-(hydroxymethyl)pyrrolidin-3-yl)oxy)-2-fluorobenzonitrile] | 0.1 to 10 nM |
| N#Cc1ccc(O[C@H]2CN(S(=O)(=O)c3ccc(C(F)(F)F)cc3C#N)C[C@@]2(O)CO)c(O)c1 [Example 168, 2-(((3R,4S)-4-(4-cyano-2-hydroxyphenoxy)-3-hydroxy-3-(hydroxymethyl)pyrrolidin-1-yl)sulfonyl)-5-(trifluoromethyl)benzonitrile] | 10 to 100 nM |
| C[C@H](O)[C@@]1(O)CN(S(=O)(=O)c2ccc(C(F)(F)F)cc2C#N)C[C@@H]1Oc1ccc(C#N)c(F)c1 [Example 194, 4-(((3S,4S)-1-((2-cyano-4-(trifluoromethyl)phenyl)sulfonyl)-4-hydroxy-4-((S)-1-hydroxyethyl)pyrrolidin-3-yl)oxy)-2-fluorobenzonitrile] | 10 to 100 nM |
| N#Cc1ccc(O[C@H]2CN(S(=O)(=O)c3ccc(C(F)(F)F)cc3C#N)C[C@@]2(O)CO)c(OC2CC2)c1 [Example 45, 2-(((3R,4S)-4-(4-cyano-2-cyclopropoxyphenoxy)-3-hydroxy-3-(hydroxymethyl)pyrrolidin-1-yl)sulfonyl)-5-(trifluoromethyl)benzonitrile] | 0.1 to 10 nM |
| N#Cc1ccc(O[C@H]2CN(S(=O)(=O)c3ccc(I)cn3)C[C@@]2(O)CN)cc1F [Example 250, 4-(((3S,4S)-4-(aminomethyl)-4-hydroxy-1-((5-iodopyridin-2-yl)sulfonyl)pyrrolidin-3-yl)oxy)-2-fluorobenzonitrile, 2,2,2-trifluoroacetate] | 0.1 to 10 nM |
| C[C@@H](O)[C@]1(O)CN(S(=O)(=O)c2ccc(OC(F)F)nc2)C[C@@H]1Oc1ccc(C#N)c(F)c1 [Example 213, 4-(((3S,4R)-1-((6-(difluoromethoxy)pyridin-3-yl)sulfonyl)-4-hydroxy-4-((R)-1-hydroxyethyl)pyrrolidin-3-yl)oxy)-2-fluorobenzonitrile] | 10 to 100 nM |
| N#Cc1ccc(O[C@H]2CN(S(=O)(=O)c3ccccc3Br)C[C@@]2(O)CO)cc1F [Example 117, 4-(((3S,4R)-1-((2-bromophenyl)sulfonyl)-4-hydroxy-4-(hydroxymethyl)pyrrolidin-3-yl)oxy)-2-fluorobenzonitrile] | 10 to 100 nM |
| Cn1ncc(Cl)c1S(=O)(=O)N1C[C@H](Oc2ccc(C#N)c(F)c2)[C@](O)(CO)C1 [Example 89, 4-(((3S,4R)-1-((4-chloro-1-methyl-1H-pyrazol-5-yl)sulfonyl)-4-hydroxy-4-(hydroxymethyl)pyrrolidin-3-yl)oxy)-2-fluorobenzonitrile] | 10 to 100 nM |
| N#Cc1ccccc1S(=O)(=O)N1C[C@H](Oc2ccc(C(F)(F)F)cc2)[C@](O)(CO)C1 [Example 56, 2-(((3R,4S)-3-hydroxy-3-(hydroxymethyl)-4-(4-(trifluoromethyl)phenoxy)pyrrolidin-1-yl)sulfonyl)benzonitrile] | 10 to 100 nM |
| N#Cc1ccc(O[C@H]2CN(S(=O)(=O)c3ccc(C(F)(F)F)cc3C#N)C[C@]2(O)CO)cc1F [Example 135, 4-(((3S,4S)-1-((2-cyano-4-(trifluoromethyl)phenyl)sulfonyl)-4-hydroxy-4-(hydroxymethyl)pyrrolidin-3-yl)oxy)-2-fluorobenzonitrile] | 0.1 to 10 nM |
| CC(C)COc1cc(C#N)c(F)cc1O[C@H]1CN(S(=O)(=O)c2ccccc2C#N)C[C@@]1(O)CO [Example 179, 4-(((3S,4R)-1-((2-cyanophenyl)sulfonyl)-4-hydroxy-4-(hydroxymethyl)pyrrolidin-3-yl)oxy)-2-fluoro-5-isobutoxybenzonitrile] | 0.1 to 10 nM |
| CCC[C@H](O)[C@]1(O)CN(S(=O)(=O)c2ccc(Cl)cn2)C[C@@H]1Oc1ccc(C#N)c(F)c1 [Example 189, 4-(((3S,4R)-1-((5-chloropyridin-2-yl)sulfonyl)-4-hydroxy-4-((S)-1-hydroxybutyl)pyrrolidin-3-yl)oxy)-2-fluorobenzonitrile] | 10 to 100 nM |

More lines, now with the values ahead:

| IC50 | Structure (SMILES) |
| --- | --- |
| 10 to 100 nM | N#CCc1cccc(O[C@H]2CN(S(=O)(=O)c3ccc(C(F)(F)F)cc3C#N)C[C@@]2(O)CO)c1 [Example 33, 2-(((3R,4S)-4-(3-(cyanomethyl)phenoxy)-3-hydroxy-3-(hydroxymethyl)pyrrolidin-1-yl)sulfonyl)-5-(trifluoromethyl)benzonitrile] |
| 10 to 100 nM | N#Cc1ccc(O[C@H]2CN(S(=O)(=O)c3ccc(I)cc3)C[C@@]2(O)CO)cc1F [Example 103, 2-fluoro-4-(((3S,4R)-4-hydroxy-4-(hydroxymethyl)-1-((4-iodophenyl)sulfonyl)pyrrolidin-3-yl)oxy)benzonitrile] |
| 0.1 to 10 nM | N#Cc1cc(C(F)(F)F)ccc1S(=O)(=O)N1C[C@H](Oc2ccc(C(F)(F)F)c(F)c2)[C@](O)(CO)C1 [Example 31, 2-(((3R,4S)-4-(3-fluoro-4-(trifluoromethyl)phenoxy)-3-hydroxy-3-(hydroxymethyl)pyrrolidin-1-yl)sulfonyl)-5-(trifluoromethyl)benzonitrile] |
| 10 to 100 nM | Cc1cc(C(F)(F)F)ccc1S(=O)(=O)N1C[C@H](Oc2ccc(C#N)c(F)c2)[C@](O)(CO)C1 [Example 81, 2-fluoro-4-(((3S,4R)-4-hydroxy-4-(hydroxymethyl)-1-((2-methyl-4-(trifluoromethyl)phenyl)sulfonyl)pyrrolidin-3-yl)oxy)benzonitrile] |
| 0.1 to 10 nM | N#Cc1ccc(S(=O)(=O)N2C[C@H](Oc3ccc(C#N)c(F)c3)[C@](O)(CO)C2)c(Cl)c1 [Example 97, 4-(((3S,4R)-1-((2-chloro-4-cyanophenyl)sulfonyl)-4-hydroxy-4-(hydroxymethyl)pyrrolidin-3-yl)oxy)-2-fluorobenzonitrile] |
| 0.1 to 10 nM | CCNC[C@]1(O)CN(S(=O)(=O)c2ccc(C(F)(F)F)cc2C#N)C[C@@H]1Oc1ccc(C#N)c(F)c1 [Example 238, 4-(((3S,4S)-1-((2-cyano-4-(trifluoromethyl)phenyl)sulfonyl)-4-((ethylamino)methyl)-4-hydroxypyrrolidin-3-yl)oxy)-2-fluorobenzonitrile, 2,2,2-trifluoroacetate] |
| 0.1 to 10 nM | N#Cc1ccc(O[C@H]2CN(S(=O)(=O)c3ccc(Cl)cc3C#N)C[C@@]2(O)CN)cc1F [Example 240, 4-(((3S,4S)-4-(aminomethyl)-1-((4-chloro-2-cyanophenyl)sulfonyl)-4-hydroxypyrrolidin-3-yl)oxy)-2-fluorobenzonitrile] |
| 0.1 to 10 nM | CCOc1cc(C#N)c(F)cc1O[C@H]1CN(S(=O)(=O)c2ccc(C(F)(F)F)cc2C#N)C[C@@]1(O)CO [Example 159, 4-(((3S,4R)-1-((2-cyano-4-(trifluoromethyl)phenyl)sulfonyl)-4-hydroxy-4-(hydroxymethyl)pyrrolidin-3-yl)oxy)-5-ethoxy-2-fluorobenzonitrile] |
| 0.1 to 10 nM | CCOc1cc(C#N)ccc1O[C@H]1CN(S(=O)(=O)c2ccc(C(F)(F)F)cc2C#N)C[C@@]1(O)CO [Example 12, 2-(((3R,4S)-4-(4-cyano-2-ethoxyphenoxy)-3-hydroxy-3-(hydroxymethyl)pyrrolidin-1-yl)sulfonyl)-5-(trifluoromethyl)benzonitrile] |
| 10 to 100 nM | N#Cc1ccc(O[C@H]2CN(S(=O)(=O)c3ccc(Cl)s3)C[C@@]2(O)CO)cc1F [Example 86, 4-(((3S,4R)-1-((5-chlorothiophen-2-yl)sulfonyl)-4-hydroxy-4-(hydroxymethyl)pyrrolidin-3-yl)oxy)-2-fluorobenzonitrile] |
| 0.1 to 10 nM | N#Cc1cc(OCC(F)(F)F)c(O[C@H]2CN(S(=O)(=O)c3ccc(Cl)cc3Cl)C[C@@]2(O)CO)cc1F [Example 177, 4-(((3S,4R)-1-((2,4-dichlorophenyl)sulfonyl)-4-hydroxy-4-(hydroxymethyl)pyrrolidin-3-yl)oxy)-2-fluoro-5-(2,2,2-trifluoroethoxy) benzonitrile] |
| 10 to 100 nM | N#Cc1ccc(O[C@H]2CN(S(=O)(=O)c3ccc(Br)cn3)C[C@@]2(O)CO)cc1F [Example 105, 4-(((3S,4R)-1-((5-bromopyridin-2-yl)sulfonyl)-4-hydroxy-4-(hydroxymethyl)pyrrolidin-3-yl)oxy)-2-fluorobenzonitrile] |
| 10 to 100 nM | N#Cc1cc(C(F)(F)F)ccc1S(=O)(=O)N1C[C@H](Oc2ccc(F)c(Cl)c2)[C@](O)(CO)C1 [Example 41, 2-(((3R,4S)-4-(3-chloro-4-fluorophenoxy)-3-hydroxy-3-(hydroxymethyl)pyrrolidin-1-yl)sulfonyl)-5-(trifluoromethyl)benzonitrile] |
| 0.1 to 10 nM | CC#Cc1ccc(S(=O)(=O)N2C[C@H](Oc3ccc(C#N)c(F)c3)[C@](O)(CO)C2)cc1 [Example 222, 2-fluoro-4-(((3S,4R)-4-hydroxy-4-(hydroxymethyl)-1-((4-(prop-1-yn-1-yl)phenyl)sulfonyl)pyrrolidin-3-yl)oxy)benzonitrile] |
| 0.1 to 10 nM | N#Cc1ccc(O[C@H]2CN(S(=O)(=O)c3ccc(Br)cc3C#N)C[C@@]2(O)CO)cc1F [Example 67, 4-(((3S,4R)-1-((4-bromo-2-cyanophenyl)sulfonyl)-4-hydroxy-4-(hydroxymethyl)pyrrolidin-3-yl)oxy)-2-fluorobenzonitrile] |
